Patent US10011568B2, “Cyclohexyl pyridine derivative” (priority 2014, dated 2018)

Experiments:
human NK1 receptor = human NK1 receptor (Homo sapiens (Human), UniProt P25103); assay: Affinity for human NK1 receptor (125I-substance P receptor binding test, membrane fraction); conditions: membrane fraction of human NK1 receptor-expressing 293T cells; read-out: IC50 (nM), concentration required for 50% inhibition of 125I-substance P binding
Description: Affinity for Human NK1 Receptor
(3) Measurement of Binding Affinity to Human NK1 Receptor
(3-1) Preparation of Membrane Fraction from Human NK1 Receptor-Expressing Cells
Human NK1 receptor-expressing cells were prepared in a 175 cm^2 culture flask (Nippon Becton Dickinson). The formation of a complex of the human NK1 receptor expression plasmid and Lipofectamine 2000 was performed by calculating the culture area ratio and increasing the scale of the method described in the above 2-4 by the ratio. The human NK1 receptor-expressing cells were collected in a buffer solution for the membrane fraction preparation (50 mM Tris (Wako Pure Chemical), 120 mM sodium chloride (Wako Pure Chemical Industries), 5 mM potassium chloride (Wako Pure Chemical Industries), 1 mM ethylenediaminetetraacetic acid (Sigma), 0.002 mg/mL chymostatin (Peptide Institute), 0.04 mg/bacitracin (Wako Pure Chemical Industries), 0.005 mg/mL phosphoramidon (Peptide Institute) and 0.5 mM phenylmethylsulfonyl fluoride (Wako Pure Chemical Industries), pH7.4) and centrifuged at 1,880 g for 10 minutes, and the cell sediment was suspended in the buffer solution for the membrane fraction preparation. After freezing and thawing the cells once, the cells were homogenized using a Dounce-type homogenizer (cooled on ice, 1000 rpm, 20 times) The homogenized cell suspension was centrifuged at 20,000 rpm for 10 minutes, and the supernatant was removed to obtain cell sediment. The cell sediment was suspended again in the buffer solution for the membrane fraction preparation and homogenized using a Dounce-type homogenizer (cooled on ice, 1000 rpm, 30 times). The cell suspension was centrifuged at 20,000 rpm for 10 minutes, and the supernatant was removed to obtain cell sediment. The same homogenization and centrifugation were repeated again, and final cell sediment was obtained. The final cell sediment was suspended in a buffer solution for the receptor binding test (50 mM Tris (Wako Pure Chemical Industries). 3 mM manganese chloride (Wako Pure Chemical Industries), 0.002 mg/mL chymostatin (Peptide Institute), 0.04 mg/bacitracin (Wako Pure Chemical Industries) and 0.02% bovine serum albumin (Sigma), pH 7.4), and the protein concentration was measured using BCA Protein Assay Kit (Pierce).
(3-2) Receptor Binding Test
The buffer solution for the receptor binding test was dispensed to the wells of a 96-well assay plate (Greiner) at 22.5 μL/well. DMSO solutions of a test compound, which were prepared at an 80-time higher concentration using 100% dimethyl sulfoxide (DMSO), were added to the wells at 2.5 μL/well (final concentrations of 1 nM to 100 nM), and the solutions were mixed. As a radiolabeled ligand, ^125I-substance P (Substance P, [^125I]Tyr^8-, Perkin Elmer) was used. ^125I-substance P was diluted with the buffer solution for the receptor binding test to a concentration resulting in 125 pmol/25 μL/well and added to the 96-well assay plate, and the solutions were mixed. The membrane fraction prepared from the human NK1 receptor-expressing cells was diluted with the buffer solution for the receptor binding test to a concentration resulting in 8 to 10 μg/well, suspended until the suspension became in such a homogenous state that the suspension could flow through a 27G injection needle smoothly and then added to the 96-well assay plate at 150 μL/well. Then, the plate was incubated at room temperature for 60 minutes while shaking the plate. The reaction solutions were suction-filtered through a multiscreen 96-well filter plate (Millipore) which had been pre-treated with 0.3% polyethyleneimine, and the reaction was terminated by washing with a washing solution (50 mM Tris and 0.02% bovine serum albumin, pH 7.4) four times. The bottom of the microplate was dried at 60° C., and then 100 μL/well of MicroScint 20 (PerkinElmer) was dispensed to the wells. The top of the plate was sealed with TopSeal A (PerkinElmer), and the plate was shaken for 5 to 10 minutes. […]

human CYP3A4 = human CYP3A4 (Homo sapiens (Human), UniProt P08684); assay: Inhibitory effect on CYP3A4; assay type: in vitro ADME; conditions: 30-minute pre-incubation, Luciferin-IPA substrate; read-out: IC50 (μM), CYP3A4 inhibition
Sequence of human CYP3A4 (P08684 whole entry): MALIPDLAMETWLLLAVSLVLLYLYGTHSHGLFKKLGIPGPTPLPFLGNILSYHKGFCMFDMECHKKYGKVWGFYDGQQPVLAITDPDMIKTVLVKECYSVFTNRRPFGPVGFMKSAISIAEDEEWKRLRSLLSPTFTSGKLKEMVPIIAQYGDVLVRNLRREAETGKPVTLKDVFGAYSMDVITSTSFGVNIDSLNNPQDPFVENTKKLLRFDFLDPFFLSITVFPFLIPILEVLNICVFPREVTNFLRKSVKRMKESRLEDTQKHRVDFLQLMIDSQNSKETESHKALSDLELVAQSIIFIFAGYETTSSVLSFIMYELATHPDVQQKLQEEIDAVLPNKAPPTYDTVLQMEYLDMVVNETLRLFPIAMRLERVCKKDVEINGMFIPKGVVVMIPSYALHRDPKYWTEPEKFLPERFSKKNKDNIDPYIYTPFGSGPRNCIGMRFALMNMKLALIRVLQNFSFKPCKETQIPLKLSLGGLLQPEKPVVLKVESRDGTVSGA
Description: Inhibitory Effect on CYP3A4
Enzyme reaction was performed by incubating in a potassium phosphate buffer solution (pH 7.4) containing 1 nM to 20 μM test compound, 3.2 mM magnesium chloride, 0.2 pmol human CYP3A4 (BD Biosciences), 0.5 mM reduced nicotinamide adenine dinucleotide phosphate (NADPH) and 3 μM Luciferin-IPA (Promega) at 37° C. for 10 minutes. The volume of the reaction solution was 50 μL/well. The 30-minute pre-incubation group was incubated at 37° C. for 30 minutes before adding tire substrate, the Luciferin-IPA solution (12.5 μL/well). At the end of the enzyme reaction, 50 μL/well of a Luciferin detection reagent (Promega) was added to the wells, and the plate was left at room temperature for 20 minutes. Then, the emission intensities were measured with Infinite M1000 (TECAN). The enzyme activities (%) relative to the value of the group to which the test compound was not added were calculated.

Sequence of human NK1 receptor (P25103 whole entry): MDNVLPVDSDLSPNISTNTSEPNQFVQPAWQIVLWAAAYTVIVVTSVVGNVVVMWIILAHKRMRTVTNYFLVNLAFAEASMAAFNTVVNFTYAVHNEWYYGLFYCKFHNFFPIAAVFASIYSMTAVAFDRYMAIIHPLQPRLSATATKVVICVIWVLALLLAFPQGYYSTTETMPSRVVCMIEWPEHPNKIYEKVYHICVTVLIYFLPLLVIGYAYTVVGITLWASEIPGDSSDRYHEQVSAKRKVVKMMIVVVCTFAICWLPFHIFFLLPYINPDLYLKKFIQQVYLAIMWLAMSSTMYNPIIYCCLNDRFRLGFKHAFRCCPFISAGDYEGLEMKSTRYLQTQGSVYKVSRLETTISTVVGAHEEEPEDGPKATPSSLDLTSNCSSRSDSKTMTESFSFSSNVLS

Compound	IC50 (human NK1 receptor) [nM]	IC50 (human CYP3A4) [µM]
Cc1cc(F)ccc1-c1cc(C2(C)CCCC(CC(=O)O)C2)ncc1N(C)C(=O)C(C)(C)c1cc(C(F)(F)F)cc(C(F)(F)F)c1 (centres unmarked) [Example 4, {3-[5-{[2-(3,5-Bistrifluoromethylphenyl)-2-methylpropionyl]methylamino}-4-(4-fluoro-2-methylphenyl)pyridin-2-yl]-3-methylcyclohexyl}acetic Acid]	2.35	7.1
Cc1cc(F)ccc1-c1cc(C2CCC3(CC2)CC3C(=O)O)ncc1N(C)C(=O)C(C)(C)c1cc(C(F)(F)F)cc(C(F)(F)F)c1 (centres unmarked) [Example 7, 6-[5-{[2-(3,5-Bistrifluoromethylphenyl)-2-methylpropionyl]methylamino}-4-(4-fluoro-2-methylphenyl)pyridin-2-yl]spiro[2.5]octane-1-carboxylic Acid]	1.63	11
Cc1cc(F)ccc1-c1cc(C2CCC(CC(=O)O)CC2)nc(C#N)c1N(C)C(=O)C(C)(C)c1cc(C(F)(F)F)cc(C(F)(F)F)c1 (centres unmarked) [Example 8, {4-[5-{[2-(3,5-Bistrifluoromethylphenyl)-2-methylpropionyl]methylamino}-6-cyano-4-(4-fluoro-2-methylphenyl)pyridin-2-yl]cyclohexyl}acetic Acid]	4.01	6.1
Cc1ccccc1-c1cc(C2CCC(CC(=O)O)CC2)nc(C#N)c1N(C)C(=O)C(C)(C)c1cc(C(F)(F)F)cc(C(F)(F)F)c1 (centres unmarked) [Example 16, [4-(5-{[2-(3,5-Bistrifluoromethylphenyl)-2-methylpropionyl]methylamino}-6-cyano-4-ortho-tolylpyridin-2-yl)cyclohexyl]acetic Acid]	2.78	3.1
Cc1cc(F)ccc1-c1cc([C@H]2CC[C@H](CC(=O)O)CC2)nc(C#N)c1N(C)C(=O)C(C)(C)c1cc(C(F)(F)F)cc(C(F)(F)F)c1 [Example 20, trans-{4-[5-{[2-(3,5-Bistrifluoromethylphenyl)-2-methylpropionyl]methylamino}-6-cyano--4-(4-fluoro-2-methylphenyl)-pyridin-2-yl]cyclohexyl}acetic acid]	3.27	5.5

Continued, values first:

IC50 (human NK1 receptor) [nM]	IC50 (human CYP3A4) [µM]	Compound
1.45	13	Cc1cc(F)ccc1-c1cc(C2CCC(C(=O)O)CC2)ncc1N(C)C(=O)C(C)(C)c1cc(C(F)(F)F)cc(C(F)(F)F)c1 (centres unmarked) [Example 1, 4-[5-{[2-(3,5-Bistrifluoromethylphenyl)-2-methylpropionyl]methylamino}-4-(4-fluoro-2-methylphenyl)pyridin-2-yl]cyclohexanecarboxylic Acid]
2.1	9.4	Cc1cc(F)ccc1-c1cc(C2CCCC(CC(=O)O)C2)ncc1N(C)C(=O)C(C)(C)c1cc(C(F)(F)F)cc(C(F)(F)F)c1 (centres unmarked) [Example 3, {3-[5-{[2-(3,5-Bistrifluoromethylphenyl)-2-methylpropionyl]methylamino}-4-(4-fluoro-2-methylphenyl)pyridin-2-yl]cyclohexyl}acetic Acid]
2.35	6.9	Cc1ccccc1-c1cc(C2CCC(CC(=O)O)CC2)ncc1N(C)C(=O)C(C)(C)c1cc(C(F)(F)F)cc(C(F)(F)F)c1 (centres unmarked) [Example 9, {4-[5-{[2-(3,5-Bistrifluoromethylphenyl)-2-methylpropionyl]methylamino}-4-ortho-tolylpyridine-yl]-cyclohexyl}acetic Acid]
2.79	11	Cc1cc(F)ccc1-c1cc(C2CCC(C(C)C(=O)O)CC2)ncc1N(C)C(=O)C(C)(C)c1cc(C(F)(F)F)cc(C(F)(F)F)c1 (centres unmarked) [Example 10, 2-{4-[5-{[2-(3,5-Bistrifluoromethylphenyl)-2-methylpropionyl]methylamino}-4-(4-fluoro-2-methylphenyl)pyridin-2-yl]cyclohexyl}propionic Acid]
6.75	2.7	Cc1cc(F)ccc1-c1cc([C@H]2CC[C@H](C(C)(C)C(=O)O)CC2)ncc1N(C)C(=O)C(C)(C)c1cc(C(F)(F)F)cc(C(F)(F)F)c1 [Example 11, trans-2-{4-[5-{[2-(3,5-Bistrifluoromethylphenyl)-2-methylpropionyl]methylamino}-4-(4-fluoro-2-methylphenyl)pyridin-2-yl]cyclohexyl}-2-methylpropionic Acid]
1.62	8.2	Cc1cc(F)ccc1-c1cc([C@H]2CC[C@H](CC(=O)O)CC2)ncc1N(C)C(=O)C(C)(C)c1cc(C(F)(F)F)cc(C(F)(F)F)c1 [Example 13, trans-{4-[5-{[2-(3,5-Bistrifluoromethylphenyl)-2-methylpropionyl]methylamino}-4-(4-fluoro-2-methylphenyl)pyridin-2-yl]cyclohexyl}acetic acid]
2.21	7.5	Cc1cc(F)ccc1-c1cc([C@H]2CC[C@@H](CC(=O)O)CC2)ncc1N(C)C(=O)C(C)(C)c1cc(C(F)(F)F)cc(C(F)(F)F)c1 [Example 14, cis-{4-[5-{[2-(3,5-bistrifluoromethylphenyl)-2-methylpropionyl]methylamino}-4-(4-fluoro-2-methylphenyl)pyridin-2-yl]cyclohexyl}acetic acid]
2.36	4.2	Cc1cc(F)ccc1-c1cc([C@H]2CC[C@@H](CC(=O)O)CC2)nc(C#N)c1N(C)C(=O)C(C)(C)c1cc(C(F)(F)F)cc(C(F)(F)F)c1 [Example 21, cis-{4-[5-{[2-(3,5-bistrifluoromethylphenyl)-2-methylpropionyl]methylamino}-6-cyano-4-(4-fluoro-2-methylphenyl)pyridin-2-yl]cyclohexyl}acetic acid]
